# Results as given in US7105730B1, “Nucleic acid molecules and other molecules associated with sterol synthesis and metabolism” (Monsanto Technology L.L.C., priority 1999, dated 2006).
# Tested on: HES1 (YOR237W) transcript in wild type yeast LPY9
# Experiment: Yeast transcript profiling by array hybridization after ketoconazole treatment
# Format: cell-based, Saccharomyces cerevisiae
# Conditions: yeast LPY9, array of yeast ORF sequences; SEQ ID NO: 5
# Protocol: The yeast strain LPY9 (MATa, leu2, Ura3, his3) is grown overnight and inoculated into SD+ hul (histidine, uracil, leucine) media. Aliquots of the culture are treated with ketoconazole (an inhibitor of C-14α demethylase (P45014DM) enzyme) at 10 ug/ml, 50 ug/ml, and […], respectively. A sample of each is collected at 2, 4, and 6 hours after treatment. Control samples treated with DMSO (dimethyl sulfoxide-solvent for ketoconazole) but not with ketoconazole are also collected. Total RNA from each sample is collected by conventional methods, such as a Zirconium/Silica bead binding and extraction method. The sequence content of each sample is analyzed and compared by hybridizing each of them to a number of yeast ORF sequences immobilized on a Nylon membrane in an array format.
# Using this method, over 600 RNA transcripts levels are shown to be altered.
smiles,measurement,value
CC(=O)N1CCN(c2ccc(OCC3COC(Cn4ccnc4)(c4ccc(Cl)cc4Cl)O3)cc2)CC1 (stereo not shown) [ketoconazole],Effect of ketoconazole addition on yeast HES1 transcript level,particularly effected
